In assay [1] the target is T1, Recombinant STAT6 protein (STAT6 (W123-T658)) (Homo sapiens, UniProt P42226).
T1 construct: Recombinant STAT6 protein (STAT6 (W123-T658))
T1 sequence (P42226 123-658): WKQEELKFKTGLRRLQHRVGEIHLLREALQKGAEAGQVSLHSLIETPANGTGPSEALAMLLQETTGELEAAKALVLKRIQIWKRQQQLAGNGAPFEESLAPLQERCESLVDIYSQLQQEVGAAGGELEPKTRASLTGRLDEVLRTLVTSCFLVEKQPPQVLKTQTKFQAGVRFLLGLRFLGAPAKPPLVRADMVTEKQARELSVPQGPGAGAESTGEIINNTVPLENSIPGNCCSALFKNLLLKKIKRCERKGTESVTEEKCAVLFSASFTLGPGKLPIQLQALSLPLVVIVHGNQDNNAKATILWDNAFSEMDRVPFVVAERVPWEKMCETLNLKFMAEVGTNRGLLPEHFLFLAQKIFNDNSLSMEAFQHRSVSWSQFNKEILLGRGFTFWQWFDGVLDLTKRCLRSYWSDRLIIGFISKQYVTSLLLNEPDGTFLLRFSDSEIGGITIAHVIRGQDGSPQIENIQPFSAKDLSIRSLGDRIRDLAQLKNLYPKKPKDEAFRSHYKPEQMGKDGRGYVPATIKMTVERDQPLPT
As to the kind of experiment: STAT6 Fluorescence Polarization (FP) Assay. The class given is binding. Conditions: STAT6 (W123-T658) 250 nM, probe 5-FAM-Ap[…]-NH2 2 nM, 45-minute incubation; read-out: STAT6 (FP assay IC50 class). An outline of the steps:
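Recombinant STAT6 (W123-T658) at 250 nM mixed with 2 nM 5-FAM phosphotyrosine peptide probe in HEPES pH 7.4 buffer with DTT, 1% DMSO final, added to serially diluted compounds. FP (mP) read after 45 min at room temperature; IC50 by nonlinear regression vs log concentration.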
Background: Polarisation of emitted light reports the rotation of a fluorescent probe.

Assay [2] has as its target T2, Recombinant STAT3 protein (STAT3 (G127-I722)) (Homo sapiens, UniProt P40763).
T2 construct: Recombinant STAT3 protein (STAT3 (G127-I722))
Nature of the assay: STAT3 Fluorescence Polarization (FP) Assay. The class given is binding. Particulars: STAT3 (G127-I722) 25 nM, probe 5-FAM-GpYLPQTV-NH2 2 nM, 45-minute incubation; read-out: STAT3 (FP assay IC50 class). An outline of the steps: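 Read-out is fluorescence polarization (mP) after 45 min at room temperature, with IC50 fitted by nonlinear regression against log compound concentration. Mixture: 25 nM STAT3 (G127-I722), 2 nM 5-FAM-GpYLPQTV-NH2 phosphopeptide, 10 mM HEPES pH 7.4 buffer, 1% DMSO.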

For orientation: IC50 means the concentration at which inhibition is half-maximal.

T2 sequence (P40763 127-722): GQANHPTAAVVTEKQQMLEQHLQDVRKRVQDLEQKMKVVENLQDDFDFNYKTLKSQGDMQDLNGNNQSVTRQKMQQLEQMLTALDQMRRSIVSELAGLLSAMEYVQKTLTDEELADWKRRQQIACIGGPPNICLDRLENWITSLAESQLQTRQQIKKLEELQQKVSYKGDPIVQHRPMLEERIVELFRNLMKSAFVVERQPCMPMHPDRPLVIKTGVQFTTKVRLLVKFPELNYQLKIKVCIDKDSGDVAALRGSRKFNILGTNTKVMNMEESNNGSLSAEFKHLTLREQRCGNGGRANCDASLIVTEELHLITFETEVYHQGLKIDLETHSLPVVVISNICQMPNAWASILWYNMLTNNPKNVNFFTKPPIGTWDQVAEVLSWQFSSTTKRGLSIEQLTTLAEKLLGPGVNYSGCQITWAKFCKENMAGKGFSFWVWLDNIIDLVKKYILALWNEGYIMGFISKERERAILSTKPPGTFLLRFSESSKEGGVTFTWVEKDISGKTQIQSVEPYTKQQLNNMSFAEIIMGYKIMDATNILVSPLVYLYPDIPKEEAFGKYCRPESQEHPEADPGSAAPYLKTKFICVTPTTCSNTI

Regarding `Cc1cccnc1C1CN(C(=O)[C@@H]2CC[C@@H]3CCC[C@H](NC(=O)c4cc5cc(C(F)(F)P(=O)(O)O)ccc5s4)C(=O)N32)C1` [Compound 658, (difluoro(2-(((3S,6S,9aS)-3-(3-(3-methylpyridin-2-yl)azetidine-1-carbonyl)-5-oxooctahydro-1H-pyrrolo[1,2-a]azepin-6-yl)carbamoyl)benzo [b]thiophen-5-yl)methyl) phosphonic acid], the IC50 fell in the range of 0.3 to 3 µM in assay [1] and 0.1 to 1 µM in assay [2].

On to `N#Cc1cncc(C2CN(C(=O)[C@@H]3CC[C@@H]4CCC[C@H](NC(=O)c5cc6cc(CP(=O)(O)O)ccc6s5)C(=O)N43)C2)c1` [Compound 659, ((2-(((3S,6S,9aS)-3-(3-(5-cyanopyridin-3-yl)azetidine-1-carbonyl)-5-oxooctahydro-1H-pyrrolo[1,2-a]azepin-6-yl)carbamoyl)benzo [b]thiophen-5-yl)methyl) phosphonic acid], for which the IC50 in assay [1] was in the range of 3 to 30 µM; in assay [2], 1 to 10 µM.

With `N#Cc1ccnc(C2CN(C(=O)[C@@H]3CC[C@@H]4CCC[C@H](NC(=O)c5cc6cc(CP(=O)(O)O)ccc6s5)C(=O)N43)C2)n1` [Compound 660, ((2-(((3S,6S,9aS)-3-(3-(4-cyanopyrimidin-2-yl)azetidine-1-carbonyl)-5-oxooctahydro-1H-pyrrolo[1,2-a]azepin-6-yl)carbamoyl)benzo [b]thiophen-5-yl)methyl) phosphonic acid], the concentration for half-maximal inhibition (IC50) in assay [1] lay within 3 to 30 µM; in assay [2], 1 to 10 µM.

On to `Cc1ncncc1C1CN(C(=O)[C@@H]2CC[C@@H]3CCC[C@H](NC(=O)c4cc5cc(CP(=O)(O)O)ccc5s4)C(=O)N32)C1` [Compound 661, ((2-(((3S,6S,9aS)-3-(3-(4-methylpyrimidin-5-yl)azetidine-1-carbonyl)-5-oxooctahydro-1H-pyrrolo[1,2-a]azepin-6-yl)carbamoyl)benzo [b]thiophen-5-yl)methyl) phosphonic acid], for which the IC50 was in the range of 3 to 30 µM in assay [1] and 1 to 10 µM in assay [2].

As to `Cn1c(C2CN(C(=O)[C@@H]3CC[C@@H]4CCCC[C@H](NC(=O)c5cc6cc(CP(=O)(O)O)ccc6s5)C(=O)N43)C2)nc2ccccc21` [Compound 662, ((2-(((3S,6S,10aS)-3-(3-(1-methyl-1H-benzo[d]imidazol-2-yl)azetidine-1-carbonyl)-5-oxodecahydropyrrolo [1,2-a]azocin-6-yl)carbamoyl)benzo [b]thiophen-5-yl)methyl) phosphonic acid], the values for the 50% inhibitory concentration (IC50) in assay [1] and in assay [2] were 3 to 30 µM and 1 to 10 µM, respectively.

Regarding `O=C(N[C@H]1CCCC[C@H]2CC[C@@H](C(=O)N3CC(c4cccnc4)C3)N2C1=O)c1cc2cc(CP(=O)(O)O)ccc2s1` [Compound 663, ((2-(((3S,6S,10aS)-5-oxo-3-(3-(pyridin-3-yl)azetidine-1-carbonyl)decahydropyrrolo[1,2-a]azocin-6-yl)carbamoyl)benzo [b]thiophen-5-yl)methyl) phosphonic acid], the values for the IC50 in assay [1] and in assay [2] were 3 to 30 µM and 0.1 to 1 µM, respectively.

In the case of `O=C(N[C@H]1CCC[C@H]2CC[C@@H](C(=O)N3CC(c4cnccc4F)C3)N2C1=O)c1cc2cc(C(F)P(=O)(O)O)ccc2s1` (stereo partly drawn) [Compound 664, (fluoro(2-(((3S,6S,9aS)-3-(3-(4-fluoropyridin-3-yl)azetidine-1-carbonyl)-5-oxooctahydro-1H-pyrrolo[1,2-a]azepin-6-yl)carbamoyl)benzo [b]thiophen-5-yl)methyl) phosphonic acid], the IC50 in assay [1] was 0.3 to 3 µM; in assay [2], less than 0.1 µM.

Consider `O=C(N[C@H]1CCC[C@H]2CC[C@@H](C(=O)N3CC(c4cnccc4N4CC[C@H](F)C4)C3)N2C1=O)c1cc2cc(CP(=O)(O)O)ccc2s1` [Compound 666, ((2-(((3S,6S,9aS)-3-(3-(4-((S)-3-fluoropyrrolidin-1-yl)pyridin-3-yl)azetidine-1-carbonyl)-5-oxooctahydro-1H-pyrrolo[1,2-a]azepin-6-yl)carbamoyl)benzo [b]thiophen-5-yl)methyl) phosphonic acid], for which the values for the 50% inhibitory concentration (IC50) in assay [1] and in assay [2] were 3 to 30 µM and less than 0.1 µM, respectively.

Regarding `O=C(N[C@H]1CCC[C@H]2CC[C@@H](C(=O)N3CC(c4cnccc4N4CC[C@@H]4C(F)F)C3)N2C1=O)c1cc2cc(CP(=O)(O)O)ccc2s1` [Compound 668, ((2-(((3S,6S,9aS)-3-(3-(4-((R)-2-(difluoromethyl)azetidin-1-yl)pyridin-3-yl)azetidine-1-carbonyl)-5-oxooctahydro-1H-pyrrolo[1,2-a]azepin-6-yl)carbamoyl)benzo [b]thiophen-5-yl)methyl) phosphonic acid], the 50% inhibitory concentration (IC50) is 3 to 30 µM in assay [1] and less than 0.1 µM in assay [2].

`O=C(N[C@H]1CCC[C@H]2CC[C@@H](C(=O)N3CC(c4ccccc4N4CCOCC4)C3)N2C1=O)c1cc2cc(C(F)P(=O)(O)O)ccc2s1` (stereo partly drawn) [Compound 670, (fluoro(2-(((3S,6S,9aS)-3-(3-(2-morpholinophenyl)azetidine-1-carbonyl)-5-oxooctahydro-1H-pyrrolo[1,2-a]azepin-6-yl)carbamoyl)benzo [b]thiophen-5-yl)methyl) phosphonic acid]: the IC50 in assay [1] lay in the range of 3 to 30 µM; in assay [2], 0.1 to 1 µM.

For the molecule `O=C(N[C@H]1CCC[C@H]2CC[C@@H](C(=O)N3CC(c4cnccc4N4C5COCC4C5)C3)N2C1=O)c1cc2cc(C(F)P(=O)(O)O)ccc2s1` (stereo partly drawn) [Compound 671, ((2-(((3S,6S,9aS)-3-(3-(4-(3-oxa-6-azabicyclo[3.1.1]heptan-6-yl)pyridin-3-yl)azetidine-1-carbonyl)-5-oxooctahydro-1H-pyrrolo[1,2-a]azepin-6-yl)carbamoyl)benzo [b]thiophen-5-yl)fluoromethyl) phosphonic acid], the results for the IC50 in assay [1] and in assay [2] were 0.3 to 3 µM and less than 0.1 µM, respectively.

As for `O=C(N[C@H]1CCC[C@H]2CC[C@@H](C(=O)N3CC(C4=CCCOC4)C3)N2C1=O)c1cc2cc(CP(=O)(O)O)ccc2s1` [Compound 672, ((2-(((3S,6S,9aS)-3-(3-(5,6-dihydro-2H-pyran-3-yl)azetidine-1-carbonyl)-5-oxooctahydro-1H-pyrrolo[1,2-a]azepin-6-yl)carbamoyl)benzo [b]thiophen-5-yl)methyl) phosphonic acid], the half-maximal inhibitory concentration (IC50) in assay [1] fell in the range of 3 to 30 µM; in assay [2], 1 to 10 µM.

As to `Cc1nnc([C@H]2[C@H](c3ccccc3)CN2C(=O)[C@@H]2CC[C@@H]3CCC[C@H](NC(=O)c4cc5cc(C(F)P(=O)(O)O)ccc5s4)C(=O)N32)o1` (stereo partly shown) [Compound 673], the IC50 in assay [1] was in the range of 3 to 30 µM; in assay [2], 0.1 to 1 µM.

On to `COC[C@@H]1CCN1c1ncncc1C1CN(C(=O)[C@@H]2CC[C@@H]3CCC[C@H](NC(=O)c4cc5cc(CP(=O)(O)O)ccc5s4)C(=O)N32)C1` [Compound 675, ((2-(((3S,6S,9aS)-3-(3-(4-((S)-2-(methoxymethyl)azetidin-1-yl)pyrimidin-5-yl)azetidine-1-carbonyl)-5-oxooctahydro-1H-pyrrolo[1,2-a]azepin-6-yl)carbamoyl)benzo [b]thiophen-5-yl)methyl) phosphonic acid], for which the IC50 in assay [1] is 3 to 30 µM; in assay [2], less than 0.1 µM.

(Values after patent US20250215029A1 (Recludix Pharma, Inc., priority 2022, published 2025).)
